From ChEMBL document CHEMBL1125940 (Bioorg Med Chem Lett, 1991)
Positions of bridges follow the written chain, without caps; N, C: chain ends. Non-standard residues stand in square brackets, D forms with d. Residues, ends and D or L forms follow the SMILES beside them. Nle = CCCC[C@H](N)C(=O)O

Species on record: Oryctolagus cuniculus
Assay: Effective concentration required for stimulation of vascular contraction tested in vitro using carotid arteries of New Zealand white rabbits
Type: functional

Row | SMILES | EC50 [nM]
1 | CC[C@H](C)[C@H](NC(=O)[C@H](CC(=O)O)NC(=O)[C@H](CC(C)C)NC(=O)[C@H](Cc1c[nH]cn1)NC(=O)[C@@H]1CSSC[C@H](N)C(=O)N[C@@H](CO)C(=O)N[C@H]2CSSC[C@H](NC(=O)[C@H](CCC(=O)O)NC(=O)[C@H](CCCCN)NC(=O)[C@H](CC(=O)O)NC(=O)[C@H](CCSC)NC(=O)[C@H](CC(C)C)NC(=O)[C@H](CO)NC(=O)[C@H](CO)NC2=O)C(=O)N[C@@H](C)C(=O)N[C@@H](Cc2ccc(O)cc2)C(=O)N[C@@H](Cc2ccccc2)C(=O)N1)C(=O)N[C@H](C(=O)N[C@@H](Cc1c[nH]c2ccccc12)C(=O)O)[C@@H](C)CC (H-CSCSSLMDKECAYFCHLDIIW-OH; disulfide 1-15, 3-11) | 130
2 | CC[C@H](C)[C@H](NC(=O)[C@H](CC(=O)O)NC(=O)[C@H](CC(C)C)NC(=O)[C@H](Cc1c[nH]cn1)NC(=O)[C@@H]1CSSC[C@H](N)C(=O)N[C@@H](CO)C(=O)N[C@H]2CSSC[C@H](NC(=O)[C@H](CCC(=O)O)NC(=O)[C@H](CCCCN)NC(=O)[C@H](CC(=O)O)NC(=O)[C@H](C)NC(=O)[C@H](C)NC(=O)[C@H](C)NC(=O)[C@H](C)NC2=O)C(=O)N[C@@H](C(C)C)C(=O)N[C@@H](Cc2ccc(O)cc2)C(=O)N[C@@H](Cc2ccccc2)C(=O)N1)C(=O)N[C@H](C(=O)N[C@@H](Cc1c[nH]c2ccccc12)C(=O)O)[C@@H](C)CC (H-CSCAAAADKECVYFCHLDIIW-OH; disulfide 1-15, 3-11) | 36
3 | CC[C@H](C)[C@H](NC(=O)[C@H](CC(=O)O)NC(=O)[C@H](CC(C)C)NC(=O)[C@H](C)NC(=O)[C@@H]1CSSC[C@H](N)C(=O)N[C@@H](CO)C(=O)N[C@H]2CSSC[C@H](NC(=O)[C@H](CCC(=O)O)NC(=O)[C@H](CCCCN)NC(=O)[C@H](CC(=O)O)NC(=O)[C@H](CCSC)NC(=O)[C@H](CC(C)C)NC(=O)[C@H](CO)NC(=O)[C@H](CO)NC2=O)C(=O)N[C@@H](C(C)C)C(=O)N[C@@H](Cc2ccc(O)cc2)C(=O)N[C@@H](Cc2ccccc2)C(=O)N1)C(=O)N[C@H](C(=O)N[C@@H](Cc1c[nH]c2ccccc12)C(=O)O)[C@@H](C)CC (H-CSCSSLMDKECVYFCALDIIW-OH; disulfide 1-15, 3-11) | 31
4 | CCCC[C@@H]1NC(=O)[C@H](CC(C)C)NC(=O)[C@H](CO)NC(=O)[C@H](CO)NC(=O)[C@H](C)NC(=O)[C@H](CO)NC(=O)[C@@H](N)CSSC[C@@H](C(=O)N[C@@H](Cc2c[nH]cn2)C(=O)N[C@@H](CC(C)C)C(=O)N[C@@H](CC(=O)O)C(=O)N[C@H](C(=O)N[C@H](C(=O)N[C@@H](Cc2c[nH]c3ccccc23)C(=O)O)[C@@H](C)CC)[C@@H](C)CC)NC(=O)[C@H](Cc2ccccc2)NC(=O)[C@H](Cc2ccc(O)cc2)NC(=O)[C@H](C(C)C)NC(=O)[C@H](C)NC(=O)[C@H](CCC(=O)O)NC(=O)[C@H](CCCCN)NC(=O)[C@H](CC(=O)O)NC1=O (H-CSASSL[Nle]DKEAVYFCHLDIIW-OH; disulfide 1-15) | 3.3
5 | CC[C@H](C)[C@H](NC(=O)[C@H](CC(=O)O)NC(=O)[C@H](CC(C)C)NC(=O)[C@H](Cc1c[nH]cn1)NC(=O)[C@@H]1CSSC[C@H](N)C(=O)N[C@@H](C)C(=O)N[C@H]2CSSC[C@H](NC(=O)[C@H](CCC(=O)O)NC(=O)[C@H](CCCCN)NC(=O)[C@H](CC(=O)O)NC(=O)[C@H](CCSC)NC(=O)[C@H](CC(C)C)NC(=O)[C@H](CO)NC(=O)[C@H](CO)NC2=O)C(=O)N[C@@H](C(C)C)C(=O)N[C@@H](Cc2ccc(O)cc2)C(=O)N[C@@H](Cc2ccccc2)C(=O)N1)C(=O)N[C@H](C(=O)N[C@@H](Cc1c[nH]c2ccccc12)C(=O)O)[C@@H](C)CC (H-CACSSLMDKECVYFCHLDIIW-OH; disulfide 1-15, 3-11) | 38
6 | CC[C@H](C)[C@H](NC(=O)[C@H](C)NC(=O)[C@H](CC(=O)O)NC(=O)[C@H](CC(C)C)NC(=O)[C@H](Cc1c[nH]cn1)NC(=O)[C@@H]1CSSC[C@H](N)C(=O)N[C@@H](CO)C(=O)N[C@H]2CSSC[C@H](NC(=O)[C@H](CCC(=O)O)NC(=O)[C@H](CCCCN)NC(=O)[C@H](CC(=O)O)NC(=O)[C@H](CCSC)NC(=O)[C@H](CC(C)C)NC(=O)[C@H](CO)NC(=O)[C@H](CO)NC2=O)C(=O)N[C@@H](C(C)C)C(=O)N[C@@H](Cc2ccc(O)cc2)C(=O)N[C@@H](Cc2ccccc2)C(=O)N1)C(=O)N[C@@H](Cc1c[nH]c2ccccc12)C(=O)O (H-CSCSSLMDKECVYFCHLDAIW-OH; disulfide 1-15, 3-11) | 182
7 | CC[C@H](C)[C@H](NC(=O)[C@H](CC(=O)O)NC(=O)[C@H](CC(C)C)NC(=O)[C@H](Cc1c[nH]cn1)NC(=O)[C@@H]1CSSC[C@H](N)C(=O)N[C@@H](CO)C(=O)N[C@H]2CSSC[C@H](NC(=O)[C@H](CCC(=O)O)NC(=O)[C@H](CCCCN)NC(=O)[C@H](CC(=O)O)NC(=O)[C@H](CCSC)NC(=O)[C@H](CC(C)C)NC(=O)[C@H](CO)NC(=O)[C@H](CO)NC2=O)C(=O)N[C@@H](C(C)C)C(=O)N[C@@H](Cc2ccc(O)cc2)C(=O)N[C@@H](Cc2ccccc2)C(=O)N1)C(=O)N[C@H](C(=O)N[C@@H](Cc1c[nH]c2ccccc12)C(=O)O)[C@@H](C)CC [ENDOTHELIN] | 0.94

Molecular target: T1, Endothelin-1 receptor (Rattus norvegicus, UniProt P26684)
T1 sequence (P26684 whole entry): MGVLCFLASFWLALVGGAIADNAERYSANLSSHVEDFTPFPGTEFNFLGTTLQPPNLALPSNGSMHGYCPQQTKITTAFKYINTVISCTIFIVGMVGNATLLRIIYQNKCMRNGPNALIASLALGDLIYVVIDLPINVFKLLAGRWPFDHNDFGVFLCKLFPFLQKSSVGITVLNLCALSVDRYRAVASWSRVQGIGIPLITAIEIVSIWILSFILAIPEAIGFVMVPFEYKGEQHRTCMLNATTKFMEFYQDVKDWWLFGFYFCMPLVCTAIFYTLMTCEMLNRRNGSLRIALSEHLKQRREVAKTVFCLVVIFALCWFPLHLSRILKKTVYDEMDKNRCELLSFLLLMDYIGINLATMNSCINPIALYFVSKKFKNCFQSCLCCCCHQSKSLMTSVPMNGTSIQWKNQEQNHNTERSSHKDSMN
Assay: Binding affinity towards Endothelin A receptor in A10 rat thoracic aorta smooth muscle cells using [125I]ET1 as radioligand

Row | SMILES | Kd [nM]
8 | CC[C@H](C)[C@H](NC(=O)[C@H](CC(=O)O)NC(=O)[C@H](CC(C)C)NC(=O)[C@H](C)NC(=O)[C@@H]1CSSC[C@H](N)C(=O)N[C@@H](CO)C(=O)N[C@H]2CSSC[C@H](NC(=O)[C@H](CCC(=O)O)NC(=O)[C@H](CCCCN)NC(=O)[C@H](CC(=O)O)NC(=O)[C@H](CCSC)NC(=O)[C@H](CC(C)C)NC(=O)[C@H](CO)NC(=O)[C@H](CO)NC2=O)C(=O)N[C@@H](C(C)C)C(=O)N[C@@H](Cc2ccc(O)cc2)C(=O)N[C@@H](Cc2ccccc2)C(=O)N1)C(=O)N[C@H](C(=O)N[C@@H](Cc1c[nH]c2ccccc12)C(=O)O)[C@@H](C)CC (H-CSCSSLMDKECVYFCALDIIW-OH; disulfide 1-15, 3-11) | 51.9
9 | CSCC[C@@H]1NC(=O)[C@H](CC(C)C)NC(=O)[C@H](CO)NC(=O)[C@H](CO)NC(=O)[C@@H]2CSSC[C@H](NC(=O)[C@H](CCC(=O)O)NC(=O)[C@H](CCCCN)NC(=O)[C@H](CC(=O)O)NC1=O)C(=O)N[C@@H](C(C)C)C(=O)N[C@@H](Cc1ccc(O)cc1)C(=O)N[C@@H](Cc1ccccc1)C(=O)N[C@H](C(=O)N[C@@H](Cc1cnc[nH]1)C(=O)N[C@@H](CC(C)C)C(=O)N[C@@H](CC(=O)O)C(=O)N[C@@H](C)C(=O)N[C@@H](C)C(=O)N[C@@H](Cc1c[nH]c3ccccc13)C(=O)O)CSSC[C@H](N)C(=O)N[C@@H](CO)C(=O)N2 (H-CSCSSLMDKECVYFCHLDAAW-OH; disulfide 1-15, 3-11) | 929
10 | CC[C@H](C)[C@H](NC(=O)[C@H](CC(=O)O)NC(=O)[C@H](CC(C)C)NC(=O)[C@H](Cc1cnc[nH]1)NC(=O)[C@@H]1CSSC[C@H](N)C(=O)N[C@@H](CO)C(=O)N[C@H]2CSSC[C@H](NC(=O)[C@H](CCC(=O)O)NC(=O)[C@H](CCCCN)NC(=O)[C@H](CC(=O)O)NC(=O)[C@H](C)NC(=O)[C@H](C)NC(=O)[C@H](C)NC(=O)[C@H](C)NC2=O)C(=O)N[C@@H](C(C)C)C(=O)N[C@@H](Cc2ccc(O)cc2)C(=O)N[C@@H](Cc2ccccc2)C(=O)N1)C(=O)N[C@H](C(=O)N[C@@H](Cc1c[nH]c2ccccc12)C(=O)O)[C@@H](C)CC (H-CSCAAAADKECVYFCHLDIIW-OH; disulfide 1-15, 3-11) | 130
11 | CC[C@H](C)[C@H](NC(=O)[C@H](CC(=O)O)NC(=O)[C@H](CC(C)C)NC(=O)[C@H](Cc1c[nH]cn1)NC(=O)[C@@H]1CSSC[C@H](N)C(=O)N[C@@H](CO)C(=O)N[C@H]2CSSC[C@H](NC(=O)[C@H](CCC(=O)O)NC(=O)[C@H](CCCCN)NC(=O)[C@H](CC(=O)O)NC(=O)[C@H](CCSC)NC(=O)[C@H](CC(C)C)NC(=O)[C@H](CO)NC(=O)[C@H](CO)NC2=O)C(=O)N[C@@H](C(C)C)C(=O)N[C@@H](Cc2ccc(O)cc2)C(=O)N[C@@H](Cc2ccccc2)C(=O)N1)C(=O)N[C@H](C(=O)N[C@@H](C)C(=O)O)[C@@H](C)CC (H-CSCSSLMDKECVYFCHLDIIA-OH; disulfide 1-15, 3-11) | > 20000
